What was measured:
Format in all cases: cell-based
1A9 ovarian carcinoma = assay: Anchorage Dependent Growth Monolayer Assay (ADGMA), 1A9; settings: Homo sapiens, Ovarian carcinoma cell, 72 h; 1A9 ovarian carcinoma cells, 3-day exposure, MTT, A540; * = average of two independent experiments
Text: (§1) As indicated above, all of the compounds of formula I are anti-tumor agents and are, therefore, useful in inhibiting the growth of various lymphomas, sarcomas, carcinomas, myelomas, and leukemia cell lines. […] This assay was adapted from the 60 cell line assay used by the National Cancer Institute (NCI) with the following modifications:
(§2) 1) four cell lines representative for the important tumor types, viz., MIP 101 colon carcinoma, HCT 116 colon carcinoma, 1A9 ovarian carcinoma and 1A9PTX22 ovarian carcinoma were utilized; and 2) a tetrazolium derivative, viz., MTT, was utilized to determine cell density.
(§3) The ADGMA compares the number of viable cells following a 3-day exposure to a test compound relative to the number of cells present at the time the test compound was added. […] The absorbance at 540 nm (A540) of the formazan derivative is proportional to the number of viable cells. The IC50 for a test compound is the concentration of compound required to reduce the final cell number to 50% of the final control cell number. If cell proliferation is inhibited, the assay further defines compounds as cytostatic (cell number after 3-day compound incubation>cell number at time of compound addition) or cytotoxic (cell number after 3-day compound incubation<cell number at time of compound addition).
(§4) The HCT 116 colon carcinoma cell line was obtained from the American Type Culture Collection (ATCC, Rockville, Md.). The MIP 101 colon carcinoma was obtained from Dr. Robert Kramer (Bristol Meyers Squibb) and was previously described (Niles R M, Wilhelm S A, Steele G D JR, Burke B, Christensen T, Dexter D, O'Brien M J, Thomas P, Zamcheck N. Isolation and characterization of an undifferentiated human colon carcinoma cell line (MIP 101). Cancer Invest. 1987;5(6):545–52). The 1A9 and the 1A9PTX22 ovarian tumor cell lines were obtained from Dr. Tito Fojo, Medicine Branch, Division of Clinical Sciences, National Cancer Institute, National Institutes of Health, Bethesda, Md. 20892. The 1A9 is a clone of the ovarian carcinoma cell line, A2780 (Giannakakou P, Sackett, D L, Kang Y-K, Zhan Z, Buters J T M, Fojo T, Poruchynsky M S. Paclitaxel-resistant human ovarian cancer cells have mutant β-tubulins that impaired paclitaxel-driven polymerization. J. Biol. Chem. 1997, 272(4):17118–17125). The 1A9PTX22 subline was isolated as an individual clone from the 1A9 cell line in a single step selection by exposure to 5 ng/mL paclitaxel in the presence of 5 μg/mL of verapamil. All cell lines were used between passages 4–20 following thawing. MIP 101 colon carcinoma, HCT 116 colon carcinoma, 1A9 ovarian carcinoma and 1A9PTX22 ovarian carcinoma cell lines are maintained and plated in RPMI 1640 medium containing 10% fetal bovine serum.
(§5) Cells are trypsinized and counted using a hemacytometer to determine cell concentrations. Cells were then plated in their respective maintenance media (200 μL/well) in 96-well plates at the following concentrations: MIP 101, 2000 cells/well, HCT 116, 2000 cells/well, 1A9, 10000 cells/well, and 1A9PTX22, 10000 cells/well. […] Initial cell densities, assayed one day after plating, are roughly 0.10–0.20 A540 absorbance units greater than the media blank. Ninety-six-well plates were seeded on day 0 and the test compounds are added on day 1. A “time 0” plate was created that received media only in row A and one cell line/row in rows B–E. The “time 0” plate was processed 24 hours after plating (at the time when drugs were added to experimental plates), as follows: To each well 5 micoliters of the MTT stock solution (0.5 mg/mL in PBS) was added to each well and then incubated for three hours at 37° C., 5% CO2, in a humidified environment. Media was then carefully and completely removed. Plates were allowed to dry in the dark. Dimethylsulfoxide (DMSO) was added to each well (100 μL/well) and plates were placed on an orbital shaker for 2 hours. […]

MIP 101 colon carcinoma = assay: Anchorage Dependent Growth Monolayer Assay (ADGMA), MIP 101; settings: Homo sapiens, Colon carcinoma cell, 72 h; MIP 101 colon carcinoma cells, 3-day exposure, MTT, A540; * = average of two independent experiments
Text: as §1, §2, §3, §4, §5

[1] = test system: 1A9PTX22 ovarian carcinoma; assay: Anchorage Dependent Growth Monolayer Assay (ADGMA), 1A9PTX22; settings: Homo sapiens, 1A9/ptx-22, 72 h; 1A9PTX22 ovarian carcinoma cells (paclitaxel-selected subline), 3-day exposure, MTT, A540; * = average of two independent experiments
Text: as §1, §2, §3, §4, §5

HCT 116 colon carcinoma = assay: Anchorage Dependent Growth Monolayer Assay (ADGMA), HCT 116; settings: Homo sapiens, 72 h; HCT 116 colon carcinoma cells, 3-day exposure, MTT, A540; * = average of two independent experiments; read-out: IC50 HCT116
Text: as §1, §2, §3, §4, §5

| Compound | IC50 (1A9 ovarian carcinoma) | IC50 (MIP 101 colon carcinoma) | IC50 [1] | IC50 (HCT 116 colon carcinoma) |
| --- | --- | --- | --- | --- |
| CC(=O)O[C@H]1C(=O)[C@@]2(C)[C@H]([C@H](OC(=O)c3ccccc3)[C@]3(O)C[C@H](OC(=O)[C@H](O)[C@@H](NC(=O)c4ccccc4)c4ccccc4)C(C)=C1C3(C)C)[C@]1(OC(C)=O)CO[C@@H]1C[C@@H]2O [Paclitaxel, reference compound] | 47 ± 7 nM | 200 ± 60 nM | 1 ± 1 nM | 0.3 ± 0.2 nM |
| C=C/C=C\[C@H](C)[C@H](OC(N)=O)[C@@H](C)[C@H](O)[C@@H](C)C/C(C)=C\C(C)C(O)C(C)/C=C\[C@@H](O)C[C@H]1CCCC(=O)O1 (stereo partly drawn) [Ex. 1, 6-[(2S,3Z,8Z,11S,12R,13S,14S,15S,16Z)-14-[(aminocarbonyl)oxy]-2,6,12-trihydroxy-5,7,9,11,13,15-hexamethyl-3,8,16,18-nonadecatetraenyl]tetrahydro-(6R)-2H-pyran-2-one] | 6 ± 2 nM | 60 ± 10 nM | 7 ± 2 nM | 7 ± 5 nM |
| C=C/C=C\[C@H](C)C(OC(N)=O)C(C)C(O)C(C)C/C(C)=C\[C@H](C)[C@@H](O)[C@@H](C)/C=C\C(=O)N(C)c1ccccc1 (stereo partly drawn) [Ex. 4, (2Z,7Z,10S,11R,12S,13S,14S,15Z)-13-[(aminocarbonyl)oxy]-5,11-dihydroxy-N,4,6,8,10,12,14-heptamethyl-N-phenyl 2,7,15,17-octadecatetraenamide] | 500 nM | 3200 nM | 400 nM | 800 nM |
| C=C/C=C\[C@H](C)C(OC(N)=O)C(C)C(O)C(C)C/C(C)=C\[C@H](C)[C@@H](O)[C@@H](C)/C=C\COc1ccccc1 (stereo partly drawn) [Ex. 3, (2Z,7Z,10S,11R,12S,13S,14S,15Z)-4,6,8,10,12,14-hexamethyl-1-phenoxy-2,7,15,17-octadecatetraene-5,11,13-triol-13-carbamate] | 300 ± 90 nM | 400 ± 100 nM | 100 ± 40 nM | 200 ± 100 nM |
| C=C/C=C\[C@H](C)C(OC(N)=O)C(C)C(O)C(C)C/C(C)=C\[C@H](C)[C@@H](O)[C@@H](C)COC(=O)NC1CCCCC1 (stereo partly drawn) [Ex. 2, (5Z,8S,9R,10S,11S,12S,13Z)-11-[(aminocarbonyl)oxy]-3,9-dihydroxy-2,4,6,8, 10,12-hexamethyl-5,13,15-hexadecatrienyl ester cyclohexylcarbamic acid] | 500 nM | 3200 nM | 400 nM | 400 nM |
| C=C/C=C\[C@H](C)C(OC(N)=O)C(C)C(O)C(C)C/C(C)=C\[C@H](C)[C@@H](O)[C@@H](C)/C=C\C(O)CC(C)C (stereo partly drawn) [Ex. 7, (2S,3Z,5S,6S,7S,8Z,11S,12R,13R,14S,15S,16Z)-1-isopropyl-5,7,9,11,13,15-hexamethyl-3,8,16,18-nonadecatetraene-2,6,12,14-tetrol-14-carbamate] | 30 nM | 100 nM | 60 nM | 30 nM |
| C=C/C=C\[C@H](C)C(OC(N)=O)C(C)C(O)C(C)C/C(C)=C\[C@H](C)[C@@H](O)[C@@H](C)/C=C\C(O)CC1CCCC1 (stereo partly drawn) [Ex. 6, (2S,3Z,5S,6S,7S,8Z,11S,12R,13R,14S,15S,16Z)-1-cyclopentyl-5,7,9,11,13,15-hexamethyl-3,8,16,18-nonadecatetraene-2,6,12,14-tetrol-14-carbamate] | 0.3 nM | 6 nM | 1 nM | 1 nM |
| C=C/C=C\[C@H](C)C(OC(N)=O)C(C)C(O)C(C)C/C(C)=C\[C@H](C)[C@@H](O)[C@@H](C)CN(C)C(=O)CC1CCCCC1 (some centres unmarked) [Ex. 5] | 400 nM | 600 nM | 80 nM | 300 nM |
